Assay results published in patent publication US7772208B2, “2′,3′-dideoxynucleoside analogues for the treatment or prevention of Flaviviridae infections” (Pharmasset, Inc., priority 2002, dated 2010).
Where a name gives a salt, the structure may show the parent alone.

Legend:
HCV protease = settings: SDS-PAGE and autoradiography assay; cited from earlier work
[1] = biological target: T1, NS5B enzyme (HCV polymerase, NS5Bt) (Hepatitis C virus genotype 1a, UniProt P27958); assay: HCV polymerase (RdRp) inhibition assay; format: biochemical; settings: for inhibition when treated: FIG. 4; for change of inhibition with increase in manganese concentration: FIG. 5
T1 construct: added a methionine and alanine to the N terminus and truncated the C-terminal 21 amino acids, replacing them with a hexahistidine tag; hexahistidine (C); made in house; host or cells: E. coli BL21(DE3)pLysS, plasmid pRSK1 in pET32a
T1 sequence (P27958 2421-2990): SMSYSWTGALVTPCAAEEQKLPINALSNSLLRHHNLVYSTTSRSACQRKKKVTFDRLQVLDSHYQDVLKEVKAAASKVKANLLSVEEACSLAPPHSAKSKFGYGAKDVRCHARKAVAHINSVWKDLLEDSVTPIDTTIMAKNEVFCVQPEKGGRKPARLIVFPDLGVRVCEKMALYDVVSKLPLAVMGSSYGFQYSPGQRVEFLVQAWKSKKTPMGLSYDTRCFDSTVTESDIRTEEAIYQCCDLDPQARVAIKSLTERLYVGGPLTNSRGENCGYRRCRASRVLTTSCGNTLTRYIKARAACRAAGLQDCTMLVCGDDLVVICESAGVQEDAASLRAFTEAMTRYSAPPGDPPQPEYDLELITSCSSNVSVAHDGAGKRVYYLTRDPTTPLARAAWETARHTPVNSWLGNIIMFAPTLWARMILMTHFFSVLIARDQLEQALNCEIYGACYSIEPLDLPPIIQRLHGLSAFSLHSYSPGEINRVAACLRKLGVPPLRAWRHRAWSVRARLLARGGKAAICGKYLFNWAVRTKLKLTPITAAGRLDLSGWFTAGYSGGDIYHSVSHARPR
Text: The HCV NS5B gene was amplified from a genotype 1A, clone, p134/pBRTM 2029-3011 (ΔAvrII). The primers used added a methionine and alanine to the N terminus and truncated the C-terminal 21 amino acids, replacing them with a hexahistidine tag, which allowed increased soluble product in E. coli and metal affinity purification. The PCR product was cloned into the pET32a expression construct (Novagen) at the NcoI and BamHI sites and the resultant plasmid (pRSK1) was sequenced by the Stanford PAN facility using standard methods. […] (DE3)pLysS cells (Novagen) were transformed by pRSK1 and grown at 37° C. to an optical density of 0.1, at which time the cells were switched to room temperature. At an optical density of 0.3-0.5, isopropyl-β-D-thiogalactopyanoside was added to a final concentration of 0.5 mM and the cells were harvested after 6 h. The cell pellet was frozen, thawed and resuspended in buffer containing 50 mM sodium phosphate pH 7.0, 10% glycerol, 0.3 M NaCl, 2 mM β-mercaptoethanol, 0.5% β-octyl-glucoside. The cell extract was sonicated, and cellular debris removed by centrifugation. The extract was incubated batch-wise with Talon metal affinity resin (Clontech), washed extensively with the above buffer, and then poured into a column for a stepwise imidazole elution. The polymerase, referred to as NS5Bt, eluted specifically between 70 mM and 250 mM imidazole and was ˜90% pure.
RdRp assays were a modification of the assays described in Kao et al. (Kao, C, C.; Yang, X.; Kline, A.; Wang, Q. M.; Barket, D.; Heinz, B. A. (2000) J. Virol. 74, 11121-11128). The template used allows for de novo synthesis and has its 3′ termini blocked by puromycin, which largely prevents the high molecular weight product from forming and allows for predominantly 24- and 25-nucleotide products to be seen. Each reaction contained 50 mM Hepes-NaOH pH 8.0, 0.65 μM template, 0.1 μM purified NS5Bt described above, 250 μM GTP, 5 μM UTP, 0.6 μM CTP, and 1 μM [αP32] ATP, 0.5 mM MnCl2, 7 mM MgCl2, 18 mM DTT, and the stated concentration of the analog. Reaction mixes were incubated at 27° C. for 45 min. Reactions were terminated by the addition of ⅕ the volume of 5× proteinase K mix (250 μg proteinase K/ml [Sigma, St Louis, Mo.], 375 mM Hepes-NaOH pH 8, 0.5% SDS, 25 mM EDTA) and incubated for 10 min at 37° C. Reactions were then precipitated with isopropanol, and glycogen as a carrier, and washed twice with 70% ethanol to remove salt. The RNA was resuspended in formamide loading buffer, heated to 65° C. for 3 min and loaded on a 20% acrylamide/7 M urea/TBE denaturing gel and separated by electrophoresis at 50° C. Quantification of bands was performed using Phosphoimager analysis.

SMILES: CCCC(=O)c1cc2c(c(O)c1C)C(=O)C(=O)c1c(O)cccc1-2 [Sch 68631]
- activity against HCV protease (HCV protease): micromolar activity

SMILES: Nc1nc(=O)n([C@@H]2CC[C@H](CO)O2)cc1F [L-ddFC, β-L-2′,3′-Dideoxy-5-fluorocytidine]
- inhibition when treated [1]: dose-dependent inhibition
- change of inhibition with increase in manganese concentration [1]: increase of inhibition

SMILES: Nc1ccn([C@@H]2CC[C@H](CO)O2)c(=O)n1 [L-ddC, β-L-2′,3′-dideoxycytidine]
- inhibition when treated [1]: no inhibition
- change of inhibition with increase in manganese concentration [1]: not affected

SMILES: Nc1nc(=O)n([C@@H]2CC[C@H](COP(=O)(O)OP(=O)(O)OP(=O)(O)O)O2)cc1F [β-L-ddFC triphosphate, β-L-2′,3′-Dideoxy-5-fluorocytidine triphosphate, triethylammonium salt]
- inhibition of NS5B enzyme ([1]; FIG. 2 and FIG. 3, triphosphate): dose-dependent inhibition
